pEC50, pKi: −log10 of the molar value. Values joined by “and” are separate entries in the source; they are usually repeats but may differ in a detail not shown here. Identical values can stand only once.
Experiments:
[1] = molecular target: EP2 (Homo sapiens (Human), UniProt P43116); test: Competition binding ([3H]PGE2), EP2; conditions: HEK 293 cells stably expressing human EP2 receptors, [3H]PGE2 10 nM
Procedure: Competition binding experiments were performed in a medium containing Hank's balanced salt solution, HEPES 20 mM, pH 7.3, membranes (˜60 μg protein) or 2×10^5 cells from HEK 293 cells stably expressing human EP2 receptors, [^3H]PGE2 (10 nM) and various concentrations of test compounds in a total volume of 300 μl. Reaction mixtures were incubated at 23° C. for 60 min, and were filtered over Whatman GF/B filters under vacuum. Filters were washed three times with 5 ml ice-cold buffer containing 50 mM Tris/HCl (pH 7.3). Non-specific binding was estimated in the presence of excess unlabeled PGE2 (10 μM). Binding data fitted to the binding model for a single class of binding sites, using nonlinear regression analysis. IC50 values thus obtained were converted to Ki using the equation of Ki=(IC50/(1+[L]/KD) where [L] represents PGE2 concentration (10 nM) and KD the dissociation constant for [^3H]PGE2 at human EP2 receptors (40 nM).

[2] = molecular target: T1, EP4 (Homo sapiens (Human), UniProt P35408); test: Competition binding, EP4
[3] = molecular target: T1, EP4; test: cAMP assay, EP4; assay type: cell-based; conditions: HEK-EBNA cells expressing EP4
Procedure: A 384-well drug plate was prepared to contain 6 test compounds, PGE2 and cAMP in 16 serial dilutions in triplicate, using a Biomek station. HEK-EBNA cells expressing a target PG receptor subtype (EP2 or EP4) were suspended in a stimulation buffer (HBSS, 0.1% BSA, 0.5 mM IBMX and 5 mM HEPES, pH 7.4) in a density of 10^4 cells/5 microliters. The reaction was initiated by mixing 5 microliters drug dilutions with 5 microliters of HEK-EBNA cells in a well, carried out for 30 min at room temperature, and followed by the addition of 5 microliters anti-cAMP acceptor beads in the control buffer with Tween-20 (25 mM NaCl, 0.03% Tween-20, 5 mM HEPES, pH 7.4). After 30 min in the dark at room temperature, the mixtures were incubated with 15 microliters biotinylated-cAMP/streptavidin donor beads in Lysis/Detection buffer (0.1% BSA, 0.3% Tween-20 and 5 mM HEPES, pH 7.4) for 45 min at room temperature. Fluorescence changes were read using a Fusion-alpha microplate reader.

EP2, sequence (P43116 whole entry): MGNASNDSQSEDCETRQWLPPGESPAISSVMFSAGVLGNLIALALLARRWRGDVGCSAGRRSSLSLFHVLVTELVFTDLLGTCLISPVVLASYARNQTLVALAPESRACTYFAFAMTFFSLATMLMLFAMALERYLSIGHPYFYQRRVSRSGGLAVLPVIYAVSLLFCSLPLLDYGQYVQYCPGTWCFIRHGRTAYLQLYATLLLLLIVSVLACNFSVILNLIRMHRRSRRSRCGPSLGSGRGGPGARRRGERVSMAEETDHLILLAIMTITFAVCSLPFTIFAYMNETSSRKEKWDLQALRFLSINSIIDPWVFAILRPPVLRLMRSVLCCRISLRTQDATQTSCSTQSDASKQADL
T1 sequence (P35408 whole entry): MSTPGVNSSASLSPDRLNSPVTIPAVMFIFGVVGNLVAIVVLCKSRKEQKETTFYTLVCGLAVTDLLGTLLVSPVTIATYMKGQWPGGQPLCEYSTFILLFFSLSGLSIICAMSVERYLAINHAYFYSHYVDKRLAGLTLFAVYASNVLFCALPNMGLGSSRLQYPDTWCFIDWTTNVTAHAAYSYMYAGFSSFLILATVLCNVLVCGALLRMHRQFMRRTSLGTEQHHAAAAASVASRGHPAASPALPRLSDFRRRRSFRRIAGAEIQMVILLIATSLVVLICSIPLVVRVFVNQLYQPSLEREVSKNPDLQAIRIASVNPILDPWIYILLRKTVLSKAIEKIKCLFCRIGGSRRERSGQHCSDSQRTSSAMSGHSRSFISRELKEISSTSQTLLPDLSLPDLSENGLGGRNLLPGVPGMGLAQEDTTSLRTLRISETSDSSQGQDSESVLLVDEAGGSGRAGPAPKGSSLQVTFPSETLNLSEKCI

O=C(O)c1ccc(CCCN2C(=O)CC[C@@H]2/C=C/C(O)c2cccc(Br)c2)cc1 (single isomer, unassigned) [Example 1]
EP2 Ki [1]: > 10000 nM | pKi [2]: 5.69 | EP4 cAMP EC50 [3]: > 10000 nM

O=C(O)c1ccc(CCCN2C(=O)CC[C@@H]2/C=C/C(O)c2ccccc2)cc1 (single isomer, unassigned) [Example 3]
EP2 Ki [1]: > 10000 nM | EP4 Ki [2]: > 10000 nM | pEC50 [3]: 5.04

O=C(O)c1ccc(CCCN2C(=O)CC[C@@H]2/C=C/C(O)c2ccccc2)cc1 (single isomer, unassigned) [Example 4]
EP2 Ki [1]: > 10000 nM | pKi [2]: 5.30 | pEC50 [3]: 5.26

O=C(O)c1ccc(CCCN2C(=O)CC[C@@H]2/C=C/C(O)c2cccc(-c3ccccc3)c2)cc1 (single isomer, unassigned) [Example 5]
EP2 Ki [1]: > 10000 nM | pKi [2]: 5.07

O=C(O)c1ccc(CCCN2C(=O)CC[C@@H]2/C=C/C(O)c2cccc(-c3ccccc3)c2)cc1 (single isomer, unassigned) [Example 6]
EP2 Ki [1]: > 10000 nM | pKi [2]: 5.17 | EP4 cAMP EC50 [3]: > 10000 nM

Cc1ccccc1-c1cccc(C(O)/C=C/[C@H]2CCC(=O)N2CCCc2ccc(C(=O)O)cc2)c1 (single isomer, unassigned) [Example 7]
EP2 Ki [1]: > 10000 nM | pKi [2]: 5.94 | pEC50 [3]: 7.85

Cc1ccccc1-c1cccc(C(O)/C=C/[C@H]2CCC(=O)N2CCCc2ccc(C(=O)O)cc2)c1 (single isomer, unassigned) [Example 8]
EP2 Ki [1]: > 10000 nM | pKi [2]: 6.80 | pEC50 [3]: 8.70

CCc1cc(Cl)ccc1-c1cccc(C(O)/C=C/[C@H]2CCC(=O)N2CCCc2ccc(C(=O)O)cc2)c1 (single isomer, unassigned) [Example 14]
EP2 Ki [1]: > 10000 nM | pKi [2]: 6.67 | pEC50 [3]: 7.48

CCc1cc(Cl)ccc1-c1cccc(C(O)/C=C/[C@H]2CCC(=O)N2CCCc2ccc(C(=O)O)cc2)c1 (single isomer, unassigned) [Example 15]
EP2 Ki [1]: > 10000 nM | pKi [2]: 8.22 | pEC50 [3]: 8.52

O=C(O)c1ccc(CCCN2C(=O)CC[C@@H]2/C=C/C(O)c2cccc(-c3ccc(Cl)cc3C(F)(F)F)c2)cc1 (single isomer, unassigned) [Example 16]
EP2 Ki [1]: > 10000 nM | pKi [2]: 6.48 | pEC50 [3]: 7.06

O=C(O)c1ccc(CCCN2C(=O)CC[C@@H]2/C=C/C(O)c2cccc(-c3ccc(Cl)cc3C(F)(F)F)c2)cc1 (single isomer, unassigned) [Example 17]
EP2 Ki [1]: > 10000 nM | pKi [2]: 7.96 | pEC50 [3]: 8.52

Cc1cc(Cl)cc(C)c1-c1cccc(C(O)/C=C/[C@H]2CCC(=O)N2CCCc2ccc(C(=O)O)cc2)c1 (single isomer, unassigned) [Example 20]
EP2 Ki [1]: > 10000 nM | pKi [2]: 6.02 | pEC50 [3]: 6.86

Cc1cc(Cl)cc(C)c1-c1cccc(C(O)/C=C/[C@H]2CCC(=O)N2CCCc2ccc(C(=O)O)cc2)c1 (single isomer, unassigned) [Example 21]
EP2 Ki [1]: > 10000 nM | pKi [2]: 7.22 | pEC50 [3]: 8.70

Cc1c(-c2cccc(C(O)/C=C/[C@H]3CCC(=O)N3CCCc3ccc(C(=O)O)cc3)c2)ccc(Cl)c1Cl (single isomer, unassigned) [Example 22]
EP2 Ki [1]: > 10000 nM | pKi [2]: 5.63 | pEC50 [3]: 7.46

Cc1c(-c2cccc(C(O)/C=C/[C@H]3CCC(=O)N3CCCc3ccc(C(=O)O)cc3)c2)ccc(Cl)c1Cl (single isomer, unassigned) [Example 23]
EP2 Ki [1]: > 10000 nM | pKi [2]: 6.85 | pEC50 [3]: 8.52

CCCc1cc(Cl)ccc1-c1cccc(C(O)/C=C/[C@H]2CCC(=O)N2CCCc2ccc(C(=O)O)cc2)c1 (single isomer, unassigned) [Example 24]
EP2 Ki [1]: > 10000 nM | pKi [2]: 5.88 | pEC50 [3]: 5.63

CCCc1cc(Cl)ccc1-c1cccc(C(O)/C=C/[C@H]2CCC(=O)N2CCCc2ccc(C(=O)O)cc2)c1 (single isomer, unassigned) [Example 25]
EP2 Ki [1]: > 10000 nM | pKi [2]: 6.89 | pEC50 [3]: 7.20

Cc1cc(Cl)ccc1-c1cc(F)cc(C(O)/C=C/[C@H]2CCC(=O)N2CCCc2ccc(C(=O)O)cc2)c1 (single isomer, unassigned) [Example 34]
EP2 Ki [1]: > 10000 nM | pKi [2]: 5.36 | pEC50 [3]: 5.76

Cc1cc(Cl)ccc1-c1cc(F)cc(C(O)/C=C/[C@H]2CCC(=O)N2CCCc2ccc(C(=O)O)cc2)c1 (single isomer, unassigned) [Example 35]
EP2 Ki [1]: > 10000 nM | pKi [2]: 6.45 | pEC50 [3]: 7.23 and 7.00

Cc1cc(Cl)ccc1-c1cc(C(O)/C=C/[C@H]2CCC(=O)N2CCCc2ccc(C(=O)O)cc2)ccc1F (single isomer, unassigned) [Example 36]
EP2 Ki [1]: > 10000 nM | pKi [2]: 5.35 | pEC50 [3]: 5.99

Cc1cc(Cl)ccc1-c1cc(C(O)/C=C/[C@H]2CCC(=O)N2CCCc2ccc(C(=O)O)cc2)ccc1F (single isomer, unassigned) [Example 37]
pEC50 [3]: 6.91 and 6.68

Cc1cc(F)ccc1-c1cccc(C(O)/C=C/[C@H]2CCC(=O)N2CCCc2ccc(C(=O)O)cc2)c1 (stereo partly drawn) [Example 11, 4-(3-{2(R)-[(1E)-3-(4′-fluoro-2′-methylbiphenyl-3-yl)-3-hydroxyprop-1-en-1-yl]-5-oxopyrrolidin-1-yl}propyl)benzoic acid]
EP2 Ki [1]: > 10000 nM | pKi [2]: < 5.87

Cc1cc(F)ccc1-c1cccc(C(O)/C=C/[C@H]2CCC(=O)N2CCCc2ccc(C(=O)O)cc2)c1 (stereo partly drawn) [Example 12, 4-(3-{2(R)-[(1E)-3-(4′-fluoro-2′-methylbiphenyl-3-yl)-3-hydroxyprop-1-en-1-yl]-5-oxopyrrolidin-1-yl}propyl)benzoic acid]
EP2 Ki [1]: > 10000 nM | pKi [2]: 7.28 | pEC50 [3]: 8.10

Cc1cc(Cl)ccc1-c1cccc(C(O)/C=C/[C@H]2CCC(=O)N2CCCc2ccc(C(=O)O)cc2)c1 (stereo partly drawn) [Example 13, 4-(3-{2(R)-[(1E)-3-(4′-chloro-2′-methylbiphenyl-3-yl)-3-hydroxyprop-1-en-1-yl]-5-oxopyrrolidin-1-yl}propyl)benzoic acid]
pKi [1]: 5.36 | pKi [2]: 7.64 | pEC50 [3]: 8.40

O=C(O)c1ccc(CCCN2C(=O)CC[C@@H]2/C=C/C(O)c2cccc(-c3ccc(Cl)cc3CO)c2)cc1 (stereo partly drawn) [Example 18, 4-[3-(2(R)-{(1E)-3-[4′-chloro-2′-(hydroxymethyl)biphenyl-3-yl]-3-hydroxyprop-1-en-1-yl}-5-oxopyrrolidin-1-yl)propyl]benzoic acid]
EP2 Ki [1]: > 10000 nM | EP4 Ki [2]: > 10000 nM | EP4 cAMP EC50 [3]: > 10000 nM

O=C(O)c1ccc(CCCN2C(=O)CC[C@@H]2/C=C/C(O)c2cccc(-c3ccc(Cl)cc3CO)c2)cc1 (stereo partly drawn) [Example 19, 4-[3-(2(R)-{(1E)-3-[4′-chloro-2′-(hydroxymethyl)biphenyl-3-yl]-3-hydroxyprop-1-en-1-yl}-5-oxopyrrolidin-1-yl)propyl]benzoic acid]
EP2 Ki [1]: > 10000 nM | pKi [2]: 6.18 | pEC50 [3]: 7.02 and 6.78

CC(C)(C)c1cc(Cl)ccc1-c1cccc(C(O)/C=C/[C@H]2CCC(=O)N2CCCc2ccc(C(=O)O)cc2)c1 (stereo partly drawn) [Example 26, 4-(3-{2(R)-[(1E)-3-(2′-tert-butyl-4′-chlorobiphenyl-3-yl)-3-hydroxyprop-1-en-1-yl]-5-oxopyrrolidin-1-yl}propyl)benzoic acid]
EP2 Ki [1]: > 10000 nM | pKi [2]: 5.05 | EP4 cAMP EC50 [3]: > 10000 nM

CC(C)(C)c1cc(Cl)ccc1-c1cccc(C(O)/C=C/[C@H]2CCC(=O)N2CCCc2ccc(C(=O)O)cc2)c1 (stereo partly drawn) [Example 27, 4-(3-{2(R)-[(1E)-3-(2′-tert-butyl-4′-chlorobiphenyl-3-yl)-3-hydroxyprop-1-en-1-yl]-5-oxopyrrolidin-1-yl}propyl)benzoic acid]
EP2 Ki [1]: > 10000 nM | pKi [2]: 6.12 | pEC50 [3]: 6.97

CCCCc1cc(Cl)ccc1-c1cccc(C(O)/C=C/[C@H]2CCC(=O)N2CCCc2ccc(C(=O)O)cc2)c1 (stereo partly drawn) [Example 28, 4-(3-{2(R)-[(1E)-3-(2′-butyl-4′-chlorobiphenyl-3-yl)-3-hydroxyprop-1-en-1-yl]-5-oxopyrrolidin-1-yl}propyl)benzoic acid]
EP2 Ki [1]: > 10000 nM | pKi [2]: 5.29

CCCCc1cc(Cl)ccc1-c1cccc(C(O)/C=C/[C@H]2CCC(=O)N2CCCc2ccc(C(=O)O)cc2)c1 (stereo partly drawn) [Example 29, 4-(3-{2(R)-[(1E)-3-(2′-butyl-4′-chlorobiphenyl-3-yl)-3-hydroxyprop-1-en-1-yl]-5-oxopyrrolidin-1-yl}propyl)benzoic acid]
EP2 Ki [1]: > 10000 nM | pKi [2]: 6.50 | pEC50 [3]: 6.93

Cc1cc(Cl)ccc1-c1ccc(C(O)/C=C/[C@H]2CCC(=O)N2CCCc2ccc(C(=O)O)cc2)s1 (stereo partly drawn) [Example 32, 4-[3-(2(R)-{(1E)-3-[5-(4-chloro-2-methylphenyl)thiophen-2-yl]-3-hydroxyprop-1-en-1-yl}-5-oxopyrrolidin-1-yl)propyl]benzoic acid]
EP2 Ki [1]: > 10000 nM | pKi [2]: 5.32
